{"source": "patent US20110206612A1", "about": "“NOVEL SCREENS TO IDENTIFY AGENTS THAT MODULATE RETINAL BLOOD VESSEL FUNCTION AND PERICYTE FUNCTION AND DIAGNOSTIC AND THERAPEUTIC APPLICATION THEREFOR” (UNIVERSITY OF TECHNOLOGY, SYDNEY, priority 2002, published 2011)", "key": {"retinal pericytes": {"tested_on": "retinal pericytes", "assay": "cells", "details": "for effect on contractile state of retinal pericytes (in words): pericytes on silicone substrate, 10 minutes per concentration", "experimental": "A small volume of dimethylpolysiloxane (Sigma Chemical Co.) of either 60,000 cps (DMPS-60M) or 12,500 cps (DMPS-12M) viscosity was applied to 12 mm diameter glass cover slips. In some cases an intermediate viscosity dimethylpolysiloxane (30,000 cps) was prepared by blending 54% by weight of 60,000 cps dimethylpolysiloxane with 46% by weight of 12,500 cps dimethylpolysiloxane. The coated cover-slip was heated for 2 seconds using a Bunsen burner to induce cross-linking of the surface of the dimethylpolysiloxane and formation of a thin silicone rubber sheet bonded to the cover slip. After preparation, the cover slips were placed in 24-well tissue culture dishes and sterilised by UV irradiation overnight.\nPericytes from primary cultures (first passage) were plated on the cover slips in DMEM supplemented with 10% FCS.\nThe response of the cells to the antagonists was evaluated using phase contrast microscopy at room temperature. […] Cells were identified as relaxed when the tension wrinkles associated with them diminished in size, and completely relaxed when the wrinkles disappeared. Conversely, a pericyte contracted when there was an increase in the number and length of the wrinkles associated with the pericyte. During each experiment, an image of the pericytes was captured (videocamera and framegrabber) by the computer every minute. The wrinkles were analysed after the experiment from these captured images.\nIn each of the experiments, the length of each clearly discerned wrinkle associated with the cell was measured 3 times, and the average of the lengths was tabulated. The two ends of a wrinkle were determined by the contrast difference from the background on the picture. The contrast settings on the computer, videocamera or framegrabber were set at the commencement of an experiment and then not changed during the course of an experiment. Similarly, the focus of the microscope was set at the commencement of the experiment and then not changed during the course of an experiment. The depth (level) of solution in the bath was also kept constant, by aspirating and injecting each new solution at the same rate. Thus the only change in the image of the wrinkle (contrast, length) was due to the tension induced in the silicone substrate by the pericyte. The wrinkles during each experimental condition were counted from the photographs with help of a Zeiss videoplan.\nThe contractile state of the pericyte was quantified by counting the number of wrinkles (N) and the length of each wrinkle (l) in the thin shin sheet of silicone. From these observations an index of contractility (Ci) was developed from […]. An experiment to determine the effect of vasoactive agents was conducted by first quantifying Ci with the pericyte in physiological buffer (“control”). […] As a further control, incubations with buffer alone for the complete duration of exposure to each vasoactive agent were performed in conjunction with each experiment.\nFor this purpose cells were grown on silicone rubber. On the day of experiment the cells were rinsed with HEPES-buffered solution for 20 min at room temperature. Then the pericytes were exposed to norepinephrine (N5785, Sigma, USA) at different concentrations (10^−6M, 10^−5M, 10^−4 M) by a rapid exchange of the entire solution. The pericytes were exposed to each new drug concentration for a total of 10 minutes, with an image of the pericytes taken every 1 min."}, "[1]": {"tested_on": "pericytes stimulated by PACAP", "assay": "inhibition of PACAP-induced relaxation of pericytes on silicone substrate", "assay_type": "cell-based", "experimental": "The contractile state of the pericyte was quantified by counting the number of wrinkles (N) and the length of each wrinkle (l) in the thin shin sheet of silicone. From these observations an index of contractility (Ci) was developed from […]. An experiment to determine the effect of vasoactive agents was conducted by first quantifying Ci with the pericyte in physiological buffer (“control”). The Ci was quantified after exposing the pericytes to a vasoactive agent and allowing the pericyte to reach a steady-state level of contractility, which usually took 10 minutes. The effect of the vasoactive agent was determined by dividing by the Ci in the control condition and multiplying by 100 to obtain an index of effect (Ie,%) that was either less than 100 (pericyte relaxed relative to control) or greater than 100 (pericyte contracted relative to control). As a further control, incubations with buffer alone for the complete duration of exposure to each vasoactive agent were performed in conjunction with each experiment.\nThe present inventors further identified protein kinase A (PKA) as being affected by the increase in cAMP following the binding of PACAP or VIP. For this purpose cells were grown on silicone substrate and contacted by a 10^−8 M concentration of PACAP.\nThe present inventors have also shown that the relaxing effect of PACAP on pericyte contraction was in part mediated by the intracellular pathway that mobilises Ca^2+ from intracellular stores."}}, "note": "Like-named read-outs stand apart in the source and are kept apart here.", "data": [{"smiles": "O=C(O)c1ccccc1Nc1ccccc1", "note": "[N-phenylanthranilic acid]", "values": [{"measurement": "effect on contractile state of retinal pericytes (in words)", "setting": "retinal pericytes", "result": "can influence the contractile state of retinal pericytes"}]}, {"smiles": "O=C(O)c1ccccc1Nc1cccc(C(F)(F)F)c1", "note": "[flufenamic acid]", "values": [{"measurement": "effect on contractile state of retinal pericytes (in words)", "setting": "retinal pericytes", "result": "can influence the contractile state of retinal pericytes"}]}, {"smiles": "C[C@@H](C(=O)O)c1ccc(-c2ccccc2)c(F)c1", "note": "[R-flurbiprofen, flurbiprofen]", "values": [{"measurement": "effect on contractile state of retinal pericytes (in words)", "setting": "retinal pericytes", "result": "can influence the contractile state of retinal pericytes"}]}, {"smiles": "CC[C@H](C)[C@H](NC(=O)[C@H](CO)NC(=O)[C@H](CC(N)=O)NC(=O)[C@H](CC(C)C)NC(=O)[C@H](Cc1ccc(O)cc1)NC(=O)[C@H](CCCCN)NC(=O)[C@H](CCCCN)NC(=O)[C@@H](NC(=O)[C@H](C)NC(=O)[C@H](CCSC)NC(=O)[C@H](CCC(N)=O)NC(=O)[C@H](CCCCN)NC(=O)[C@H](CCCNC(=N)N)NC(=O)[C@H](CC(C)C)NC(=O)[C@H](CCCNC(=N)N)NC(=O)[C@@H](NC(=O)[C@H](Cc1ccc(O)cc1)NC(=O)[C@H](CC(N)=O)NC(=O)[C@H](CC(=O)O)NC(=O)[C@@H](NC(=O)[C@H](Cc1ccccc1)NC(=O)[C@@H](NC(=O)[C@H](C)NC(=O)[C@H](CC(=O)O)NC(=O)[C@H](CO)NC(=O)[C@@H](N)Cc1c[nH]cn1)C(C)C)[C@@H](C)O)[C@@H](C)O)C(C)C)C(=O)N[C@@H](CC(C)C)C(=O)N[C@@H](CC(N)=O)C(N)=O", "note": "[VIP, vasoactive intestinal polypeptide]", "values": [{"measurement": "EC50", "setting": "retinal pericytes; read-out: EC50 concentration, effect on contractility of pericytes (relaxation), contractility index below 100 = relaxed, data averaged from cells, FIGS. 4, 5", "result": 0.048, "unit": "µM"}]}, {"smiles": "NC[C@H](O)c1ccc(O)c(O)c1", "note": "[NE, norepinephrine]", "values": [{"measurement": "effect on contractile state of retinal pericytes (in words)", "setting": "retinal pericytes", "result": "contracting in a dose-dependent manner"}, {"measurement": "EC50", "setting": "retinal pericytes; read-out: EC50 of pericyte contraction of silicone substrate", "result": 8, "unit": "µM"}, {"measurement": "concentration causing contraction of pericytes", "setting": "retinal pericytes; retinal pericytes, FIG. 3", "result": "greater than 10^−6 M"}, {"measurement": "concentration giving maximum enhancement of contractile state of the pericytes", "setting": "retinal pericytes; retinal pericytes, FIG. 3", "result": "10^−4 M"}]}, {"smiles": "COc1ccc2c(c1)CC[C@@H]1[C@@H]2CC[C@]2(C)[C@@H](NCCCCCCN3C(=O)C=CC3=O)CC[C@@H]12", "note": "[U73122, 1-[6-([(17β)-3-Methoxyestra-1,3,5(10)-trien-17-yl]amino)hexyl]-1H-py-rrole-2,2-dione]", "values": [{"measurement": "effect on PACAP-induced relaxation of pericytes", "setting": "[1]; inhibitor at 10 μM", "result": "antagonist of the PACAP-induced relaxation of pericytes"}]}, {"smiles": "O=S(=O)(NCCNCC=Cc1ccc(Br)cc1)c1cccc2cnccc12", "note": "[H-89, N-(2-[p-bromocinnamylamino]-ethyl)-5-isoquinolinesulfonamid-e]", "values": [{"measurement": "effect on the relaxing effect of PACAP", "setting": "[1]; 10^−8 M PACAP, inhibitor at 0.3 μM", "result": "inhibited the relaxing effect"}]}, {"smiles": "Nc1ncnc2c1ncn2[C@@H]1O[C@@H]2COP(O)(=S)O[C@H]2[C@H]1O", "note": "(single isomer, unassigned) [Rp-cAMPS, adenosine 3′,5′-cyclic monophosphothioate, Rp-isomer]", "values": [{"measurement": "EC50", "setting": "[1]; 10^−8 M PACAP, 10, 30, 100 μM added sequentially, 10 minutes each, FIG. 6, read-out: EC50 of inhibition of the relaxing effect of PACAP", "result": 26, "unit": "µM"}]}]}
